Results taken from patent publication US9296728B2, “Therapeutic compounds” (Regents of the University of Minnesota, priority 2012, dated 2016).

Experiments:
[1] = Toxicity study in BALB/c nude mice containing WiDr colorectal adenocarcinoma xenograft (body weight); format: in vivo; settings: BALB/c nude mice with WiDr xenograft
Experimental: Female BALB/c nude mice weighing ˜20 g were taken and 5.0 10^6 WiDr cancer cells were implanted into their right flanks with a 1:1 mixture of 0.1 mL PBS and matrigel. The tumor was allowed to grow to a size of ˜150 cubic millimeters (14 days). The mice were randomly chosen by chance and assigned into 5 groups (6 mice per group), one group being the control group to which tumor was allowed to grow without any drug administration (food only). The drugs were administered twice daily by P.O. or I.P. Group 1 mice were administered orally with 50 mg/kg of Compound 20. Groups 2, 3 and 4 mice were treated via IP with 10 mg/kg Compound 20, 8 mg/kg of Compound 14 and 238 mg/kg CHC respectively. Body weight changes were recorded every two days for 3 weeks.

[2] = test system: WiDr xenograft tumor model; experiment: Anticancer efficacy in Balb/c nude mice, WiDr xenograft (Example 8); format: in vivo; settings: BALB/c nude mice with WiDr xenograft, 50-100 mg/Kg p.o. or i.p.
Experimental: Female BALB/c nude mice weighing ˜20 g were taken and 5.0 10^6 WiDr cancer cells were implanted into their right flanks with 1:1 mixture of 0.1 mL PBS and matrigel. The mice were arbitrarily chosen by chance and assigned into 7 groups (6 animals/group) and the treatment was started from the same day of the implantation of cancer cells. Mice in group 1 were orally administered two times daily with 100 mg/Kg of Compound 20. Mice in group 2 were orally administered four times per day with 50 mg/Kg of Compound 20. Group 3 mice were injected intraperitoneally 2 times per day with 100 mg/Kg of Compound 20. Group 4 mice were injected intraperitoneally one time per day with 100 mg/Kg and group 5 mice were injected intraperitoneally 2 times per day with 50 mg/Kg of Compound 20. Group 6 was treated with 0.2 mL of 2% DMSO in water intraperitoneally 4 times daily and group 7 mice were assigned as the control group to which tumor was allowed to grow without any drug administration (food only). The tumor volume was recorded every two days using the formula
[formula] where a is the long diameter of the tumor and b is the short diameter of the tumor. […] The inhibition rate was determined using the formula:
[formula] where C is average tumor weight of control group, T is average tumor weight of test group. […] The inhibition rate was determined using the above formula.

COc1cc(N(c2ccccc2)c2ccccc2)ccc1/C=C(\C#N)C(=O)O [Compound 20]
Weight in grams (Day 0) ([1]; 10 mg/kg i.p. twice daily): 21.93 grams
Weight in grams (Day 22) ([1]; 10 mg/kg i.p. twice daily): 23.38 grams
Weight in grams (Day 0) ([1]; 50 mg/kg p.o. twice daily): 21.85 grams
Weight in grams (Day 22) ([1]; 50 mg/kg p.o. twice daily): 23.01 grams
systemic toxicity (inference from Example 8) [2]: without much systemic toxicity
